In ChEMBL document CHEMBL4732256, “Synthesis and biological activities of novel mitochondria-targeted artemisinin ester derivatives” (Bioorg Med Chem Lett, 2021):
Calls of active or inactive are those of the source. The rule behind the calls is not given here.

What was measured:
J82 = assay: Cytotoxicity in human J82 cells assessed as reduction in cell viability by MTT assay; type: functional, cell-based
HUVEC = assay: Cytotoxicity against HUVEC assessed as reduction in cell viability by MTT assay; type: cell-based; conditions: Homo sapiens
OVCAR-3 [1] = assay: Cytotoxicity against human OVCAR3 cells assessed as reduction in cell viability by MTT assay; type: functional, cell-based
A549 [2] = assay: Cytotoxicity against human A549 cells assessed as reduction in cell viability by MTT assay; type: functional, cell-based
SMMC-7721 = assay: Cytotoxicity against human SMMC-7721 cells assessed as reduction in cell viability by MTT assay; type: functional, cell-based
HepG2 = assay: Cytotoxicity against human HepG2 cells assessed as reduction in cell viability by MTT assay; type: functional, cell-based
OVCAR-3 [3] = assay: Induction of apoptosis in human OVCAR-3 cells assessed as early apoptotic cell at 10 uM after 48 hrs by Annexin V-FITC/PI staining based flow cytometry (reference value: 1.58%); type: functional
OVCAR-3 [4] = assay: Induction of apoptosis in human OVCAR-3 cells assessed as late apoptotic cell at 10 uM after 48 hrs by Annexin V-FITC/PI staining based flow cytometry (reference value: 0.118%); type: functional
OVCAR-3 [5] = assay: Induction of apoptosis in human OVCAR-3 cells assessed as necrotic cell at 10 uM after 48 hrs by Annexin V-FITC/PI staining based flow cytometry (reference value: 0.00%); type: functional
OVCAR-3 [6] = assay: Induction of apoptosis in human OVCAR-3 cells assessed as viable cell at 10 uM after 48 hrs by Annexin V-FITC/PI staining based flow cytometry (reference value: 98.3%); type: functional
A549 [7] = assay: Potency index, ratio of cisplatin IC50 to test compound IC50 for human A549 cells; type: functional
OVCAR-3 [8] = assay: Induction of apoptosis in human OVCAR-3 cells assessed as necrotic cell at 10 uM after 48 hrsin presence of 4C-TPPBr by Annexin V-FITC/PI staining based flow cytometry (reference value: 0.00%); type: functional; conditions: time 48 hrs
OVCAR-3 [9] = assay: Induction of apoptosis in human OVCAR-3 cells assessed as late apoptotic cell at 10 uM after 48 hrs in presence of 4C-TPPBr by Annexin V-FITC/PI staining based flow cytometry (reference value: 0.118%); type: functional
OVCAR-3 [10] = assay: Induction of apoptosis in human OVCAR-3 cells assessed as viable cell at 10 uM after 48 hrs in presence of 4C-TPPBr by Annexin V-FITC/PI staining based flow cytometry (reference value: 98.3%); type: functional
OVCAR-3 [11] = assay: Induction of apoptosis in human OVCAR-3 cells assessed as early apoptotic cell at 10 uM after 48 hrs in presence of 4C-TPPBr by Annexin V-FITC/PI staining based flow cytometry (reference value: 1.58%); type: functional
OVCAR-3 [12] = assay: Induction of mitochondrial membrane potential loss in human OVCAR-3 cells assessed as mitochondrial depolarization by measuring green fluorescence at 30 uM measured after 48 hrs by JCI staining based fluorescence microscopy (reference value: 3.3 %); type: functional
OVCAR-3 [13] = assay: Induction of heme-mediated cell death in human OVCAR-3 cells assessed as reduction in cell viability at 3 to 30 uM pretreated with delta-aminolevulinic acid followed by compound addition by Hoechst 33258 staining based assay; conditions: dose 3-30 µM
OVCAR-3 [14] = assay: Induction of apoptosis in human OVCAR-3 assessed as nuclear blebbing measured after 48 hrs by Hoechst 33258 staining based fluorescence microscopic analysis; type: functional, cell-based; conditions: dose 3-10 µM
OVCAR-3 [15] = assay: Induction of ROS generation in human OVCAR-3 cells at 1 to 10 uM measured after 48 hrs in presence of N-acetyl cysteine by DCFH-DA staining based fluorescence microscopy; type: functional, cell-based; conditions: dose 1-10 µM
OVCAR-3 [16] = assay: Induction of heme-mediated cell death in human OVCAR-3 cells assessed as reduction in cell viability at 3 to 30 uM pretreated with succinyl-acetone followed by compound addition by Hoechst 33258 staining based assay; conditions: dose 3-30 µM
OVCAR-3 [17] = assay: Induction of mitochondrial membrane potential loss in human OVCAR-3 cells assessed as mitochondrial depolarization by measuring green fluorescence at 10 uM measured after 48 hrs by JCI staining based fluorescence microscopy (reference value: 3.3 %); type: functional
OVCAR-3 [18] = assay: Potency index, ratio of cisplatin IC50 to test compound IC50 for human OVCAR-3 cells; type: functional
OVCAR-3 [19] = assay: Induction of mitochondrial membrane potential loss in human OVCAR-3 cells assessed as mitochondrial depolarization by measuring green fluorescence at 3 uM measured after 48 hrs by JCI staining based fluorescence microscopy (reference value: 3.3 %); type: functional
OVCAR-3 [20] = assay: Induction of apoptosis in human OVCAR-3 assessed as nuclear shrinkage measured after 48 hrs by Hoechst 33258 staining based fluorescence microscopic analysis; type: functional, cell-based; conditions: dose 3-10 µM
OVCAR-3 [21] = assay: Induction of ROS generation in human OVCAR-3 cells measured after 48 hrs by DCFH-DA staining based fluorescence microscopy; type: functional, cell-based; conditions: dose 1-10 µM
OVCAR-3 [22] = assay: Cytotoxicity against human OVCAR-3 cells at 1 to 10 uM measured after 72 hrs in presence of N-acetyl cysteine by MTT assay; type: functional, cell-based; conditions: dose 1-10 µM
[23] = Selectivity index ratio of IC50 for HUVEC to IC50 for human OVCAR3 cells
OVCAR-3 [24] = assay: Induction of apoptosis in human OVCAR-3 assessed as nuclear rounding measured after 48 hrs by Hoechst 33258 staining based fluorescence microscopic analysis; type: functional, cell-based; conditions: dose 3-10 µM

Which results are given for `C[C@H]1[C@H](OC(=O)CCC(=O)OCCCCC[P+](c2ccccc2)(c2ccccc2)c2ccccc2)O[C@@H]2O[C@@]3(C)CC[C@H]4[C@H](C)CC[C@@H]1[C@@]24OO3`?
IC50 (J82): 29.3 µM; IC50 (HUVEC): 27.5 µM; IC50 (OVCAR-3 [1]): 6.6 µM; IC50 (A549 [2]): 5.6 µM; IC50 (SMMC-7721): 13 µM; IC50 (HepG2): 16.1 µM

With `C[C@H]1[C@H](OC(=O)CCC[P+](c2ccccc2)(c2ccccc2)c2ccccc2)O[C@@H]2O[C@@]3(C)CC[C@H]4[C@H](C)CC[C@@H]1[C@@]24OO3` as the compound, how does the IC50 (J82) read?
Its IC50 is 115 µM.

And the IC50 (HUVEC)?
The IC50 was 116 µM.

And the IC50 (OVCAR-3 [1])?
The IC50 was 15.8 µM.

What about the IC50 (A549 [2]) of the same compound?
Its IC50 is 12.2 µM.

And the IC50 (SMMC-7721)?
The IC50 was 34.2 µM.

And the IC50 (HepG2)?
The IC50 was 35.7 µM.

Which results are given for `C[C@H]1[C@H](OC(=O)CC[P+](c2ccccc2)(c2ccccc2)c2ccccc2)O[C@@H]2O[C@@]3(C)CC[C@H]4[C@H](C)CC[C@@H]1[C@@]24OO3`?
IC50 (J82): 78.8 µM; IC50 (HUVEC): 66.5 µM; IC50 (OVCAR-3 [1]): 35.7 µM; IC50 (A549 [2]): 26.5 µM; IC50 (SMMC-7721): 62.7 µM; IC50 (HepG2): 1.2 µM

What does the source list for `O=C(O)CCCC[P+](c1ccccc1)(c1ccccc1)c1ccccc1.[Br-]`?
Activity (OVCAR-3 [3]): 5.81%; Activity (OVCAR-3 [4]): 0.625%; Activity (OVCAR-3 [5]): 1.55%; Activity (OVCAR-3 [6]): 92%

For `C[C@H]1[C@H](OC(=O)CCCCC[P+](c2ccccc2)(c2ccccc2)c2ccccc2)O[C@@H]2O[C@@]3(C)CC[C@H]4[C@H](C)CC[C@@H]1[C@@]24OO3.[Br-]`, which IC50 (J82) is on record?
The IC50 was 13.9 µM.

And the “Ratio IC50” value (A549 [7])?
The value was 4.8.

What about the IC50 (HUVEC) of the same compound?
Its IC50 is 9.1 µM.

And the IC50 (OVCAR-3 [1])?
Its IC50 is 7.1 µM.

And the IC50 (A549 [2])?
Its IC50 is 2.7 µM.

And the IC50 (SMMC-7721)?
The IC50 was 11.9 µM.

And the IC50 (HepG2)?
Its IC50 is 5.3 µM.

Which IC50 (J82) does the source give for `C[C@H]1[C@@H](O)O[C@@H]2O[C@@]3(C)CC[C@H]4[C@H](C)CC[C@@H]1[C@@]24OO3` [ARTENIMOL] here?
The IC50 was 146 µM.

And the Activity (OVCAR-3 [3])?
Its Activity is 3.61%.

What about the Activity (OVCAR-3 [4]) of the same compound?
The Activity was 1.97%.

And the IC50 (HUVEC)?
The IC50 was 180 µM.

And the Activity (OVCAR-3 [5])?
Its Activity is 0.062%.

What about the IC50 (OVCAR-3 [1]) of the same compound?
Its IC50 is 87.2 µM.

What about the Activity (OVCAR-3 [8]) of the same compound?
The Activity was 0.01%.

And the Activity (OVCAR-3 [6])?
Its Activity is 94.4%.

And the Activity (OVCAR-3 [9])?
Its Activity is 1.56%.

What about the IC50 (A549 [2]) of the same compound?
Its IC50 is 27.8 µM.

What about the Activity (OVCAR-3 [10]) of the same compound?
Its Activity is 95.7%.

What about the IC50 (SMMC-7721) of the same compound?
Its IC50 is 61.4 µM.

What about the IC50 (HepG2) of the same compound?
The IC50 was 73.6 µM.

What about the Activity (OVCAR-3 [11]) of the same compound?
Its Activity is 2.74%.

Which IC50 (J82) does the source give for `C[C@H]1[C@H](OC(=O)CCC(=O)OCCC[P+](c2ccccc2)(c2ccccc2)c2ccccc2)O[C@@H]2O[C@@]3(C)CC[C@H]4[C@H](C)CC[C@@H]1[C@@]24OO3` here?
Its IC50 is 43.8 µM.

What about the IC50 (HUVEC) of the same compound?
Its IC50 is 18.3 µM.

What about the IC50 (OVCAR-3 [1]) of the same compound?
Its IC50 is 16.6 µM.

What about the IC50 (A549 [2]) of the same compound?
Its IC50 is 5.5 µM.

What about the IC50 (SMMC-7721) of the same compound?
The IC50 was 23.6 µM.

What about the IC50 (HepG2) of the same compound?
The IC50 was 13 µM.

Which results are given for `C[C@H]1[C@H](OC(=O)CCC(=O)O)O[C@@H]2O[C@@]3(C)CC[C@H]4[C@H](C)CC[C@@H]1[C@@]24OO3` [ARTESUNATE]?
IC50 (J82): 75.7 µM; IC50 (HUVEC): 86.1 µM; IC50 (OVCAR-3 [1]): 67.3 µM; IC50 (A549 [2]): 5.4 µM; IC50 (SMMC-7721): 72.3 µM; IC50 (HepG2): 47 µM

Which IC50 (J82) does the source give for `C[C@H]1[C@H](OC(=O)CCCC[P+](c2ccccc2)(c2ccccc2)c2ccccc2)O[C@@H]2O[C@@]3(C)CC[C@H]4[C@H](C)CC[C@@H]1[C@@]24OO3.[Br-]` here?
The IC50 was 41.9 µM.

What about the Activity (OVCAR-3 [12]) of the same compound?
Its Activity is 95.5%.

And the Activity (OVCAR-3 [13])?
The Activity was “inactive”.

And the Activity (OVCAR-3 [3])?
Its Activity is 10.5%.

What about the Activity (OVCAR-3 [14]) of the same compound?
Its Activity is “Dose-dependent effect”.

And the Activity (OVCAR-3 [15])?
The Activity was “inactive”.

And the Activity (OVCAR-3 [16])?
The Activity was “inactive”.

What about the Activity (OVCAR-3 [17]) of the same compound?
The Activity was 55.4%.

What about the “Ratio IC50” value (A549 [7]) of the same compound?
Its value is 4.8.

And the Activity (OVCAR-3 [4])?
The Activity was 4.04%.

What about the IC50 (HUVEC) of the same compound?
Its IC50 is 24.5 µM.

And the Activity (OVCAR-3 [5])?
The Activity was 0.078%.

And the IC50 (OVCAR-3 [1])?
Its IC50 is 3 µM.

And the “Ratio IC50” value (OVCAR-3 [18])?
Its value is 4.4.

What about the Activity (OVCAR-3 [19]) of the same compound?
The Activity was 17.2%.

What about the Activity (OVCAR-3 [20]) of the same compound?
Its Activity is “Dose-dependent effect”.

What about the Activity (OVCAR-3 [21]) of the same compound?
Its Activity is “Active”.

And the Activity (OVCAR-3 [6])?
Its Activity is 85.4%.

And the Activity (OVCAR-3 [22])?
Its Activity is “inactive”.

What about the IC50 (A549 [2]) of the same compound?
The IC50 was 4.7 µM.

What about the “Ratio IC50” value [23] of the same compound?
Its value is 8.2.

What about the IC50 (SMMC-7721) of the same compound?
Its IC50 is 18 µM.

And the IC50 (HepG2)?
The IC50 was 5.2 µM.

What about the Activity (OVCAR-3 [24]) of the same compound?
Its Activity is “Dose-dependent effect”.
